Source: patent US20050124557A1, “Use of benzothiazepines having activity as inhibitors of ileal bile acid transport for reducing cholesterololemia” (priority 2002, published 2005)
Counter-ions that a name gives are not always drawn.

Columns and labels:
[1] = tested on: LDL receptor/ApoE deficient mice; assay: Combination study (experiment II): plasma lipids/lipoproteins after Compound (I), atorvastatin calcium salt or both; type: in vivo; settings: for HDL, % Change compared to control group / LDL, % Change compared to control group / LP-remnants, % Change compared to control group: FPLC
Experimental: (§1) Compound (I) was dissolved in polyethanylglycol (PEG):ethanol:solutol:Water (4:1:0.5:8.5) vehicle and administered by gavage once a day in the afternoon.
(§2) Altogether 54 female LDL receptor/ApoE deficient mice were used (5 to 6 weeks old weighing 25 to 30 g at the start of the study; obtained from B&M/AS, Denmark). They were kept under standardized conditions with free access to water and chow. The light-cycle hours were between 6:00 a.m. and 6:00 p.m. In experiment I, the dose response study, the mice were treated with Compound (I) by gavage once a day in the afternoon the first three days and in the morning the last day. The control group on regular R^3-chow received the vehicle by gavage. […] The control group received R^3 chow and vehicle.
(§3) Mice were starved 3 hours before they were scarified at 10 a.m. Animals were anaesthetized with isofluran, bled by cardiac puncture, and thereafter killed by cervical dislocation. Blood was collected into EDTA containing tubes, plasma was separated by centrifugation and stored at −70° C.
(§4) Cholesterol in plasma and in FPLC on line measurement was performed with a commercial cholesterol kit from Roche Diagnostics, GmbH, Germany, Cholesterol, CHOD-PAP 1489437.
(§5) Triglycerides in plasma was measured by using a commercial reagent kit, from Roche Diagnostics, GmbH, Germany, Triglycerides/GB, 450032.
(§6) The cholesterol distribution profiles were measured by using a size exclusion high performance liquid chromatography system, SMART, with column Superose 6 PC 3.2/30, (Amersham Pharmacia Biotec, Uppsala, Sweden). The chromatographic system was linked to an air segmented continuous flow system for online post-derivatization analysis of total cholesterol by using enzymatic colorimetric reagents. The SMART-system was connected to a sample injector, (Gina 50, Gynkotek HPLC, Germering, GmbH). Elution buffer consisted of 0.01M Tris, 0.03 M NaCl, pH 7.40, flow rate […]. The on line flow system was equipped with a peristaltic pump, flow rate 0.7 ml/min, and an incubation coil for 8 minutes at 37° C. The absorbance was measured at […] with a UV/VIS detector, (Jasco UV-970, Jasco International Co, Ltd, Japan). Data were integrated with a Chromeleon chromatography data system (Gynkotek HPLC, Germering GmbH). The distribution of lipoproteins was continuously measured as total cholesterol by using enzymatic calorimetric reagent, reconstituted in water, double volume compared to manufacturer instructions. The commercial kits were from Roche Diagnostics, GmbH, Germany, Cholesterol, CHOD-PAP 1489437. The separation was performed within 60 minutes on a 10 μl sample. The integrated area of the fractions was expressed in molar concentration. The various peaks in the profiles are designated LP-remnants, LDL, and HDL for simplicity, even though it is clear that the separation is determined primarily by the size of the lipoproteins.

[2] = tested on: LDL receptor/ApoE deficient mice; assay: Dose response study (experiment I): plasma lipids/lipoproteins after Compound (I) by gavage; type: in vivo; settings: for Chol (plasma total cholesterol), % Change compared to control group / LP-remnants + LDL/HDL, % Change compared to control group / TG (plasma triglycerides), % Change compared to control group / HDL, % Change compared to control group / LDL, % Change compared to control group / LP-remnants, % Change compared to control group: three days, gavage
Experimental: as §1, §2, §3, §4, §5, §6
With the aim to determine the effect of the BAT inhibitor, Compound (I), on the level of plasma lipids in LDL receptor/ApoE deficient mice, groups of animals received vehicle or Compound (I) at increasing doses (0.62, 2.5, 10 and 40 μmol/kg/day) for 3.5 days. […] To analyze plasma lipoproteins in detail, plasma lipoprotein patterns were generated after separation of plasma by FPLC.

[3] = FPLC analysis of plasma, 7 days
[4] = one week, Compound (I) 10 μmol/kg/day by gavage, atorvastatin calcium salt 0.05% in chow
[5] = FPLC, dose not stated in the sentence (Table 1: 40 μmol/kg/day)

Question: CC(C)c1c(C(=O)Nc2ccccc2)c(-c2ccccc2)c(-c2ccc(F)cc2)n1CC[C@@H](O)C[C@@H](O)CC(=O)O [Atorvastatin calcium salt, reference compound] was tested. Which “reduction of LDL cholesterol” value [1, 3] did it give?
Answer: The value was 44%.

Question: What about the “LP-remnants + LDL/HDL, % Change compared to control group” value (“LP-remnants + LDL/HDL, % Change” for short) [1, 4] of the same compound?
Answer: The value was 2%.

Question: What about the “HDL, % Change compared to control group” value [1, 4] of the same compound?
Answer: Its value is −22%.

Question: What about the “LDL, % Change compared to control group” value [1, 4] of the same compound?
Answer: Its value is −43%.

Question: What about the “LP-remnants, % Change compared to control group” value (from here on “LP-remnants, % Change”) [1, 4] of the same compound?
Answer: The value was −2%.

Question: Which “increase in HDL cholesterol” value ([1]; 7 days) does the source give for CCCC[C@]1(CC)CS(=O)(=O)c2cc(O[C@@H]3O[C@H](C(=O)O)[C@@H](O)[C@H](O)[C@H]3O)ccc2[C@@H](c2ccccc2)N1 [Compound (I), (3R,5R)-3-butyl-3-ethyl-1,1-dioxido-5-phenyl-2,3,4,5-tetrahydro-1,4-benzothiazepin-8-yl β-D-glucopyranosiduronic acid] here?
Answer: The value was 22%.

Question: And the “effect on the plasma triglyceride level (in words)” value ([1]; 7 days, Compound (I) 10 μmol/kg/day alone)?
Answer: The value was “no effect”.

Question: What about the “reduction of total plasma cholesterol” value ([1]; 7 days, atorvastatin calcium salt 0.05% in diet (approximately 80-100 mg/kg/day), Compound (I) 10 μmol/kg/day) of the same compound?
Answer: The value was 40%.

Question: What about the “reduction of LDL cholesterol” value [1, 3] of the same compound?
Answer: The value was 30%.

Question: And the “reduction of LP-remnants cholesterol” value [1, 3]?
Answer: Its value is 62%.

Question: And the “Chol (plasma total cholesterol), % Change compared to control group” value (“Chol … % Change compared to control group” below) [1, 4]?
Answer: Its value is −42%.

Question: What about the “LP-remnants + LDL/HDL, % Change” value [1, 4] of the same compound?
Answer: Its value is −54%.

Question: And the “TG (plasma triglycerides), % Change compared to control group” value (from here on “TG (plasma triglycerides), % Change”) [1, 4]?
Answer: The value was 7%.

Question: And the “HDL, % Change compared to control group” value [1, 4]?
Answer: Its value is 22%.

Question: And the “LDL, % Change compared to control group” value [1, 4]?
Answer: The value was −29%.

Question: And the “LP-remnants, % Change” value [1, 4]?
Answer: The value was −62%.

Question: And the “Chol … % Change compared to control group” value ([2]; 0.625 μmol/kg/day)?
Answer: The value was −9%.

Question: What about the “LP-remnants + LDL/HDL, % Change” value ([2]; 0.625 μmol/kg/day) of the same compound?
Answer: Its value is −30%.

Question: What about the “TG (plasma triglycerides), % Change” value ([2]; 0.625 μmol/kg/day) of the same compound?
Answer: Its value is 13%.

Question: And the “HDL, % Change compared to control group” value ([2]; 0.625 μmol/kg/day, FPLC)?
Answer: Its value is 29%.

Question: What about the “LDL, % Change compared to control group” value ([2]; 0.625 μmol/kg/day, FPLC) of the same compound?
Answer: The value was 8%.

Question: And the “LP-remnants, % Change” value ([2]; 0.625 μmol/kg/day, FPLC)?
Answer: Its value is −27%.

Question: And the “Chol … % Change compared to control group” value ([2]; 10 μmol/kg/day)?
Answer: Its value is −35%.

Question: What about the “LP-remnants + LDL/HDL, % Change” value ([2]; 10 μmol/kg/day) of the same compound?
Answer: The value was −55%.

Question: And the “TG (plasma triglycerides), % Change” value ([2]; 10 μmol/kg/day)?
Answer: The value was 23%.

Question: What about the “HDL, % Change compared to control group” value ([2]; 10 μmol/kg/day, FPLC) of the same compound?
Answer: Its value is 36%.

Question: What about the “LDL, % Change compared to control group” value ([2]; 10 μmol/kg/day, FPLC) of the same compound?
Answer: Its value is −20%.

Question: And the “LP-remnants, % Change” value ([2]; 10 μmol/kg/day, FPLC)?
Answer: The value was −54%.

Question: And the “Chol … % Change compared to control group” value ([2]; 40 μmol/kg/day)?
Answer: Its value is −40%.

Question: What about the “LP-remnants + LDL/HDL, % Change” value ([2]; 40 μmol/kg/day) of the same compound?
Answer: Its value is −62%.

Question: And the “TG (plasma triglycerides), % Change” value ([2]; 40 μmol/kg/day)?
Answer: Its value is 8%.

Question: What about the “HDL, % Change compared to control group” value ([2]; 40 μmol/kg/day, FPLC) of the same compound?
Answer: The value was 45%.

Question: What about the “LDL, % Change compared to control group” value ([2]; 40 μmol/kg/day, FPLC) of the same compound?
Answer: Its value is −23%.

Question: What about the “LP-remnants, % Change” value ([2]; 40 μmol/kg/day, FPLC) of the same compound?
Answer: The value was −63%.

Question: And the “Plasma triglycerides (in words)” value ([2]; 0.62-40 μmol/kg/day, 3.5 days)?
Answer: The value was “not significantly altered”.

Question: And the “HDL cholesterol (in words)” value ([2]; FPLC)?
Answer: The value was “no reduction”.

Question: And the “reduction in plasma cholesterol in LDL fraction” value [2, 5]?
Answer: Its value is 23%.

Question: What about the “reduction in plasma cholesterol in LP-remnants fraction” value [2, 5] of the same compound?
Answer: Its value is 63%.

Question: And the “reduction of total plasma cholesterol” value ([2]; highest dose (40 μmol/kg/day), 3.5 days)?
Answer: The value was 40%.
